Laboratory results: patent US10684294B2, “Diarylether-based fluorogenic probes for detection of hypochlorous acid or hydroxyl radical” (THE UNIVERSITY OF HONG KONG, priority 2015, dated 2020)

Tests used:
[1] = Fluorescence response of probe to increasing hypochlorous acid concentration; settings: 10 μM probe
Experimental: Specifically, Compound HKOCl-3 is dissolved in 0.1 M phosphate buffer at pH 7.4 to form a 10 μM solution, with excitation and emission spectra at 490 nm and 527 nm, respectively. The 10 μM solution of compound HKOCl-3 is treated with hypochlorous acid at various concentrations.
Specifically, compound HJ-3-279 is dissolved in 0.1 M phosphate buffer at pH 7.4 to form a 10 μM solution, with excitation and emission spectra at 490 nm and 527 nm, respectively. The 10 μM solution of Compound HJ-3-279 is treated with hypochlorous acid at various concentrations.
Specifically, Compound BXY2142 is dissolved in 0.1 M phosphate buffer at pH 7.4 to form a 10 μM solution, with excitation and emission spectra at 530 nm and 557 nm, respectively. The 10 μM solution of Compound BXY2142 is treated with hypochlorous acid at various concentrations.
Specifically, compound HJ-3-259 is dissolved in 0.1 M phosphate buffer at pH 7.4 to form a 10 μM solution, with excitation and emission spectra at 562 nm and 585 nm, respectively. The 10 μM solution of Compound HJ-3-259 is treated with hypochlorous acid at various concentrations.

[2] = Reactivity of probe toward different ROS and RNS (HOCl selectivity); settings: ONOO− 10 μM
Experimental: (§1) The reactivity of compound HKOCl-3 is compared toward different reactive oxygen species (ROS) and reactive nitrogen species (RNS). Specifically, the 10 μM solution of compound HKOCl-3 is treated with various ROS and RNS. The concentration of highly reactive oxygen species (hydroxyl radical (^●OH), hypochlorous acid (HOCl), and peroxynitrite (ONOO^−)) is 10 μM. The concentration of ^1O2, O2^●−, ^●NO, ROO^●, TBHP and H2O2 is 100 μM.
as §1, with “HJ-3-279” for “HKOCl-3”
as §1, with “BXY2142” for “HKOCl-3”, “[…],” for “^1O2, O2^●−,”
as §1, with “HJ-3-259” for “HKOCl-3”, “with” for “toward”

[3] = Fluorescence response of probe to hydroxyl radical source (Fenton reagent; TCBQ/H2O2); settings: 5 μM probe, 0.1 M phosphate buffer pH 7.4, Fenton reagent or TCBQ/H2O2 (H2O2 10:1)
Experimental: (§2) Specifically, compound HYY166 is dissolved in 0.1 M phosphate buffer at pH 7.4 to form a 5 μM solution, with excitation and emission spectra at 490 nm and 520 nm, respectively. The 5 μM solution of compound HYY166 is treated with hydroxyl radical generated from different hydroxyl radical source: (1) Fenton reagent ([H2O2]:[FeCl2]=10:1); (2) Tetrachloro-1,4-benzoquinone (TCBQ)/H2O2 ([H2O2]:[TCBQ]=10:1) system.
as §2, with “HKOH-1” for “HYY166”, “504” for “490”, “525” for “520”

[4] = Reactivity of probe toward different ROS, RNS, FeCl2, FeCl3 and TCBQ (hydroxyl radical selectivity); settings: 5 μM probe, •OH, HOCl, ONOO−, FeCl2, FeCl3, TCBQ 5 μM, other ROS/RNS 50 μM, especially TCBQ/H2O2 system
Experimental: (§3) The reactivity of compound HYY166 is tested toward different reactive oxygen species (ROS), reactive nitrogen species (RNS), FeCl2, FeCl3 and TCBQ. Specifically, the 5 μM solution of compound HYY166 is treated with various ROS and RNS. The concentration of highly reactive oxygen species (hydroxyl radical (^●OH), hypochlorous acid (HOCl), and peroxynitrite (ONOO^−)), FeCl2, FeCl3 and TCBQ is 5 μM. The concentration of ^1O2, O2^●−, ^●NO, ROO^●, TBHP and H2O2 is 50 μM.
as §3, with “HKOH-1” for “HYY166”, “compared” for “tested”

[5] = 0.1 M phosphate buffer pH 7.4, excitation 490 nm, emission 527 nm
[6] = 10 μM probe, •OH, 1O2, O2•−, •NO, ROO•, TBHP, H2O2 100 μM, excitation 490 nm, emission 527 nm
[7] = excitation 504 nm, emission 525 nm
[8] = excitation 490 nm, emission 520 nm

In the case of `CCOC(=O)CCCN1c2cc3c(cc2C(C)CC1(C)C)C1(OC(=O)c2ccccc21)c1ccc(Oc2cc(Cl)c(O)c(Cl)c2)cc1O3` (stereo not shown) [BXY2142], the “fluorescence intensity on treatment with hypochlorous acid at various concentrations” value ([1]; 0.1 M phosphate buffer pH 7.4, excitation 530 nm, emission 557 nm) is reported as “increases with increasing concentration of hypochlorous acid”.

In the case of `O=C1OC2(c3cc(Cl)c(O)cc3Oc3cc(Oc4cc(Cl)c(O)c(Cl)c4)c(Cl)cc32)c2ccccc21` (stereo not shown) [HJ-3-279], the “fluorescence intensity on treatment with hypochlorous acid at various concentrations” value [1, 5] is reported as “increases with increasing concentration of hypochlorous acid” and the “increase in fluorescence intensity with hypochlorous acid versus other ROS and RNS” value [2, 6] is reported as “much higher increase”.

For `O=C1OC2(c3ccc(O)cc3Oc3cc(Oc4cc(Cl)c(O)c(Cl)c4)ccc32)c2ccccc21` (stereo not shown) [HKOCl-3], the “fluorescence intensity on treatment with hypochlorous acid at various concentrations” value [1, 5] was “increases with increasing concentration of hypochlorous acid”, the “increase in fluorescence intensity with hypochlorous acid versus other ROS and RNS” value [2, 6] was “much higher increase” and the “increase in fluorescence intensity with hypochlorous acid versus other ROS and RNS” value ([2]; 10 μM solution of BXY2142, •OH, other ROS/RNS 100 μM, excitation 530 nm, emission 557 nm) was “much higher increase”.

In the case of `O=C1OC2(c3cc(Cl)c(O)cc3Oc3cc(Oc4cc(I)c(O)c(I)c4)c(Cl)cc32)c2ccccc21` (stereo not shown) [HKOH-1], the “fluorescence intensity on treatment with hydroxyl radical source” value [3, 7] is reported as “increases with increasing concentration of hydroxyl radical source” and the “increase in fluorescence intensity with hydroxyl radical versus other ROS and RNS” value [4, 7] is reported as “much higher increase”.

In the case of `O=C1OC2(c3ccc(O)cc3Oc3cc(Oc4cc(I)c(O)c(I)c4)ccc32)c2ccccc21` (stereo not shown) [HYY166], the “fluorescence intensity on treatment with hydroxyl radical source” value [3, 8] is reported as “increases with increasing concentration of hydroxyl radical source” and the “increase in fluorescence intensity with hydroxyl radical versus other ROS and RNS” value [4, 8] is reported as “much higher increase”.
